{"source": "patent US20020115721A1", "about": "“Esters of alkycarboxy amino acids as prodrugs of modulators of the kainate receptor” (Annovis, Inc., priority 2000, published 2002)", "key": {"[1]": {"test_system": "Sprague-Dawley rats", "experiment": "Rat allodynia/hyperalgesia pain model after capsaicin", "type": "in vivo", "method": "This test is to determine the extent of protection by a test compound to neuropathic pain sensations. With the rat standing on an elevated perforated floor, mechano-allodynia is measured by applying from beneath a graded series of von Frey hairs to the mid-plantar region of the effected paws. The hair that evokes at least one withdrawal response is designated the threshold level when compared to the sham treated nerve. Alternatively, the paw can be illuminated with a noxious radiant heat and the time to paw withdrawal is measured.\nThe model is described by Bennett, Neuro. Report 5, 1438-1440 (1994), and references cited therein. He measures changes in withdrawal latency after chronic constriction injury; a rat is prepared by bilaterally exposing the sciatic nerves on both thighs. On one side, loosely fitting constrictive ligatures are tied around the nerve; the other side is sham manipulated but not ligated. The model can also be used to measure increases in sensitivity and decreases in latency after injection of an irritating or pain inducing substance such as capsaicin or carrageenan.\nA total of 40 adult male Sprague-Dawley rats, 250-300 g, were used. Baseline measures of withdrawal responses evoked by heat and mechanical stimuli were determined for each hind paw and obtained for at least 4 consecutive days until withdrawal and latency responses were stable. Four groups of 10 rats each were sorted to establish equivalent baseline mean responses to heat and mechanical stimuli. Each group was randomly assigned to 1 of 4 treatment conditions: vehicle, 10, 50, or 100 mg/kg compound i.p. On test day, withdrawal responses to heat and mechanical stimuli were measured before intraperitoneal injection of the treatment condition. […] Capsaicin (10 μl of 0.1%, intraplantar) was administered 30 minutes after i.p. injection. Withdrawal responses to heat and mechanical stimuli were again measured 5 and 30 minutes post capsaicin. The contralateral paw served as an internal control. The experimenter was blind to the treatment condition.\nThe prodrugs were tested in the allodynia model after inducing pain with capsaicin.\nA total of 24 adult male Sprague-Dawley rats, 250-300 g., were used and treated according to protocol described above using (2S,4R)-4-methyl glumatic acid methyl ester.\nA total of 33 adult male Sprague-Dawley rats, 250-300 g., were treated according to protocol described above using (2S,4R)-4-methyl glumatic acid ethyl ester. The concentrations of the compound were […]."}, "[2]": {"experiment": "Prodrug hydrolysis to the acid form in plasma", "type": "in vitro ADME", "excerpt": "The ester bond in any of the disclosed prodrug compositions can be readily cleaved in vivo. Therefore, prodrug compositions of Formula I can be hydrolyzed to the corresponding acids form in plasma."}, "[3]": {"test_system": "Sprague-Dawley rats", "experiment": "Rat allodynia/hyperalgesia pain model after capsaicin", "type": "in vivo", "conditions": "1 hour before capsaicin"}, "[4]": {"test_system": "AMPA receptor as compared to the kainate receptor", "conditions": "selectivity ratio; cited from earlier work"}, "[5]": {"biological_target": "glycine site of the NMDA receptor (Homo sapiens, UniProt Q05586)", "conditions": "cited from earlier work"}, "[6]": {"conditions": "cited from earlier work"}}, "data": [{"smiles": "COC(=O)[C@H](C)C[C@H](N)C(=O)OC.Cl", "note": "[Compound 2, (2S,4R)-4-Methyl Glutamic Acid Dimethyl Ester Hydrochloride]", "values": [{"measurement": "hyperalgesia to mechanical stimuli (p<0.05)", "setting": "[1]; 10 mg/kg i.p., capsaicin", "value": "reduced"}, {"measurement": "hyperalgesia to radiant heat (p<0.05)", "setting": "[1]; 10 mg/kg i.p., capsaicin", "value": "reduced"}, {"measurement": "hydrolysis to (2S,4R)-4-methyl glutamic acid (1)", "setting": "[2]", "value": "readily hydrolyzed"}, {"measurement": "melting point", "value": "138 to 139", "unit": "°C"}, {"measurement": "prevention of development of hyperalgesia", "setting": "[3]; 0.1 mg/kg i.p.", "value": "no effect"}, {"measurement": "hyperalgesia prevention", "setting": "[3]; 1 mg/kg i.p.", "value": "about 40%"}, {"measurement": "prevention of development of hyperalgesia", "setting": "[3]; 10 and 50 mg/kg i.p.", "value": "totally prevented"}]}, {"smiles": "CCOC(=O)[C@H](N)C[C@H](C)C(=O)OCC.Cl", "values": [{"measurement": "melting point", "value": "158 to 160", "unit": "°C"}]}, {"smiles": "C[C@H](C[C@H](N)C(=O)O)C(=O)O", "note": "[Compound 1, (2S,4R)-4-Methyl glutamic acid]", "values": [{"measurement": "blocking hyperalgesia to heat", "setting": "[1]; 10, 50, 100 mg/kg i.p., capsaicin", "value": "effective"}, {"measurement": "blocking mechanical hyperalgesia", "setting": "[1]; 10, 50, and 100 mg/kg i.p., capsaicin intraplantar 30 minutes after injection", "value": "effective"}, {"measurement": "mechanical hyperalgesia versus vehicle (p<0.05)", "setting": "[1]; 5 minutes post capsaicin, all doses (10, 50, 100 mg/kg i.p.)", "value": "significantly different from vehicle"}, {"measurement": "hyperalgesia to heat versus vehicle", "setting": "[1]; 30 minute time point", "value": "not significantly different from vehicle"}, {"measurement": "mechanical hyperalgesia versus vehicle (p<0.05)", "setting": "[1]; 30 minutes post capsaicin, 100 mg/kg i.p. only", "value": "remained significantly different from vehicle"}, {"measurement": "hyperalgesia to heat versus vehicle (p<0.05)", "setting": "[1]; all three doses (10, 50, 100 mg/kg i.p.), early time point", "value": "significantly different from vehicle"}]}, {"smiles": "CCOC(=O)[C@H](C)C[C@H](N)C(=O)OCC.Cl", "note": "[Compound 3, (2S,4R)-4-Methyl Glutamic Acid Diethyl Ester Hydrochloride]", "values": [{"measurement": "blocking hyperalgesia to heat", "setting": "[1]; 0.1 to 50 mg/kg i.p., capsaicin", "value": "not effective"}, {"measurement": "blocking mechanical hyperalgesia (p<0.05)", "setting": "[1]; 10 and 50 mg/kg i.p., capsaicin", "value": "effective"}, {"measurement": "melting point", "value": "158 to 160", "unit": "°C"}]}, {"smiles": "NS(=O)(=O)c1cccc2c3c(cc([N+](=O)[O-])c12)=NC(=O)C(=O)N=3", "note": "[NBQX, 6-nitro-7-sulfamoylbenzoquinoxaline-2,3-dione]", "values": [{"measurement": "affinity for AMPA receptor as compared to kainate receptor", "setting": "[4]", "value": "thirty"}, {"measurement": "binding to glycine site of NMDA receptor", "setting": "[5]", "value": "non-specifically binds"}, {"measurement": "solubility in water", "setting": "[6]", "value": "very limited"}]}, {"smiles": "COC(=O)[C@H](N)C[C@H](C)C(=O)OC.Cl", "values": [{"measurement": "melting point", "value": "138 to 139", "unit": "°C"}]}]}
